Experimental data from patent publication US20250042862A1, “AROMATIC HETEROCYCLIC COMPOUND AND APPLICATION THEREOF” (Shanghai Institute of Materia Medica, Chinese Academy of …, priority 2021, published 2025).

The compounds below were run against human recombinant LSD1 protein (Homo sapiens (Human), UniProt O60341) (assay: In vitro enzyme inhibition activity assay - LSD1 (Lance Ultra TR-FRET)). Conditions: all compounds tested in the form of hydrochloride.
Format: biochemical
Protocol: The purpose of this experiment was to test the in vitro inhibitory activity of the compounds against LSD1. The human recombinant LSD1 protein used in the experiment was purchased from Active Motif, and the enzyme level activity testing assay of LSD1 was performed using the Lance Ultra LSD1 Histone H3 Lysine 4 Demethylase Assay Kit (PerkinElmer). Tris-buffer (50 mMTris-HCl, 50 mMNaCl, 0.01% Tween-20, 1 mM DTT, 10 μM FAD, 10% glycerol, pH 9.0) was first prepared, and after preparation, the LSD1 fractions required for test were placed in this buffer and incubated for one hour at room temperature; the fractions included 4 μL of substrate solution ([…] Bio-H3K4me2, 1-24aa), 4 μL of enzyme solution (4 nM LSD1), and 2 μL of inhibitor in a 384-well microplate. After these operations, another 5 μL of assay mixture containing Eu-labeled H3K4me0 antibody and ULight-Streptavidin anti-biotin protein was added to the system, after which the fluorescence intensity of the components to be tested was detected by using Envision (PerkinElmer) in TR-FRET mode (excitation wavelength of 320 nm, emission wavelength of 620 nm). The test was repeated a total of three times to minimize errors. The final IC50 data were calculated by the software GraphPad Prism 5, and finally the sigmoidal dose-response (variable slope) method was used to obtain the fitted curve.
The LSD1 inhibitory activities of representative compounds of the present application as well as the positive control compound CC90011 were provided in Table 2. All compounds were tested in the form of hydrochloride.

Compound | IC50
CC1(C)CN(c2nc(-c3ccc(C#N)c(F)c3)c3cc(-c4c(F)cccc4C(F)(F)F)ccc3n2)CCC1N (centres unmarked) [Compound 71, 4-(2-(4-amino-3,3-dimethylpiperidin-1-yl)-6-(2-fluoro-6-(trifluoromethyl)phenyl)quinazolin-4-yl)-2-fluorobenzonitrile] | ≤ 30 nM
N#Cc1ccc(-c2nc(N3CC[C@H](N)[C@@H](F)C3)nc3ccc(-c4c(F)cccc4C(F)(F)F)cc23)cc1F [Compound 85, 4-(2-((3S,4S)-4-amino-3-fluoropiperidin-1-yl)-6-(2-fluoro-6-(trifluoromethyl)phenyl)quinazolin-4-yl)-2-fluorobenzonitrile] | 30 to 300 nM
N#Cc1ccc(-c2nc(N3CCC[C@@H](N)C3)nc3ccc(-c4c(F)cccc4C(F)(F)F)cc23)cc1F [Compound 74, (R)-4-(2-(3-aminopiperidin-1-yl)-6-(2-fluoro-6-(trifluoromethyl)phenyl)quinazolin-4-yl)-2-fluorobenzonitrile] | ≤ 30 nM
N#Cc1ccc(-c2nc(N3CCCC(N)CC3)nc3ccc(-c4c(F)cccc4C(F)(F)F)cc23)cc1F (centres unmarked) [Compound 72, 4-(2-(4-aminoazepan-1-yl)-6-(2-fluoro-6-(trifluoromethyl)phenyl)quinazolin-4-yl)-2-fluorobenzonitrile] | ≤ 30 nM
N#Cc1ccc(-c2nc(NC[C@H]3CCNC3)nc3ccc(-c4c(Cl)cccc4C(F)(F)F)cc23)cc1F [Compound 52] | 30 to 300 nM
Cc1ccccc1-c1ccc2nc(NCC3CCNC3)nc(-c3ccc(C#N)c(F)c3)c2c1 (centres unmarked) [Compound 34, 2-Fluoro-4-(2-((pyrrolidin-3-ylmethyl)amino)-6-(o-methylphenyl)quinazolin-4-yl)benzonitrile] | ≤ 30 nM
N#Cc1ccc(-c2nc(N3CCC(N)CC3)nc3ccc(-c4ccccc4OC(F)(F)F)cc23)cc1F [Compound 13, 4-(2-(4-aminopiperidin-1-yl)-6-(2-(trifluoromethoxy)phenyl)quinazolin-4-yl)-2-fluorobenzonitrile] | 30 to 300 nM
N#Cc1ccc(-c2nc(N3CC[C@@H](N)C3)nc3ccc(-c4c(F)cccc4C(F)(F)F)cc23)cc1F [Compound 91, (R)-4-(2-(3-aminopyrrolidin-1-yl)-6-(2-fluoro-6-(trifluoromethyl)phenyl)quinazolin-4-yl)-2-fluorobenzonitrile] | ≤ 30 nM
N#Cc1ccc(-c2nc(N3CCC(N)CC3)nc3c2CN(c2c(F)cccc2C(F)(F)F)CC3)cc1F [Compound 93, 4-(2-(4-aminopiperidin-1-yl)-6-(2-fluoro-6-(trifluoromethyl)phenyl)-5,6,7,8-tetrahydropyrido[4,3-d]pyrimidin-4-yl)-2-fluorobenzonitrile] | 30 to 300 nM
N#Cc1ccc(-c2nc(N3CCC(N)CC3)nc3c(F)cc(-c4ccccc4F)cc23)cc1F [Compound 81] | 30 to 300 nM
Cn1ncc2cccc(-c3ccc4nc(N5CCC(N)CC5)nc(-c5ccc(C#N)c(F)c5)c4c3)c21 [Compound 11, 4-(2-(4-aminopiperidin-1-yl)-6-(1-methyl-1H-indazol-7-yl)quinazolin-4-yl)-2-fluorobenzonitrile] | ≤ 30 nM
CN(C)C1CCN(c2nc(-c3ccc(C#N)c(F)c3)c3cc(-c4c(F)cccc4C(F)(F)F)ccc3n2)CC1 [Compound 73, 4-(2-(4-(Dimethylamino)piperidin-1-yl)-6-(2-fluoro-6-(trifluoromethyl)phenyl)quinazolin-4-yl)-2-fluorobenzonitrile] | ≤ 30 nM
N#Cc1ccc(-c2nc(N3CC[C@@H](N)[C@@H](F)C3)nc3ccc(-c4c(F)cccc4C(F)(F)F)cc23)cc1F [Compound 83, 4-(2-((3S,4R)-4-amino-3-fluoropiperidin-1-yl)-6-(2-fluoro-6-(trifluoromethyl)phenyl)quinazolin-4-yl)-2-fluorobenzonitrile] | 30 to 300 nM
Cc1cc(C)c(-c2ccc3nc(NC[C@H]4CCNC4)nc(-c4ccc(C#N)c(F)c4)c3c2)c(C)c1 [Compound 46, (S)-4-(6-(2,4,6-trimethylphenyl)-2-((pyrrolidin-3-ylmethyl)amino)quinazolin-4-yl)-2-fluorobenzonitrile] | ≤ 30 nM
